Measured values: ChEMBL document CHEMBL4043275, “Design, synthesis and biological evaluation of phthalimide-alkylamine derivatives as balanced multifunctional cholinesterase and monoamine oxidase-B inhibitors for the treatment of Alzheimer's disease” (Bioorg Med Chem Lett, 2017)
Active and inactive are the calls of the source. No cut-off for these calls is given here.

Legend:
[1] = target: Acetylcholinesterase (Electrophorus electricus) (UniProt O42275); assay: Inhibition of electric eel AChE at 50 uM using acetylthiocholine chloride as substrate incubated for 15 mins by Ellman's method relative to control
Acetylcholinesterase (Electrophorus electricus), sequence (O42275 24-633 limits assumed): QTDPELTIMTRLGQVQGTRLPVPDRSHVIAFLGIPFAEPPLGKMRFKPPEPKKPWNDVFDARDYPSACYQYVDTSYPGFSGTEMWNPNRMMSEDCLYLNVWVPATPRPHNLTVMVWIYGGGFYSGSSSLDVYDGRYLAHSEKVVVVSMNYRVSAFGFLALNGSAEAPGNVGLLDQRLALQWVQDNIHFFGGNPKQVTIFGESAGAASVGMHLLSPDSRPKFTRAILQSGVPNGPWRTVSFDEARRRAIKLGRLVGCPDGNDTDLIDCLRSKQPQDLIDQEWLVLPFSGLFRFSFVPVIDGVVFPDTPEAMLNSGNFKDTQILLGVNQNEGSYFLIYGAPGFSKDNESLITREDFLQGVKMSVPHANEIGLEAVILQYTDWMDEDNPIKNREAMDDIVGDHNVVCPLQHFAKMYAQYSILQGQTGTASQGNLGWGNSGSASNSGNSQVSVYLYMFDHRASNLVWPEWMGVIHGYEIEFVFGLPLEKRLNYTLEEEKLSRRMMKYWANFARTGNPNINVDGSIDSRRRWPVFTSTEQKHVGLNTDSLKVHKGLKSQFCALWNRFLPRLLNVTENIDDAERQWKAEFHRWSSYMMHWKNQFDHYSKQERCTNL

[2] = target: Cholinesterase (Equus caballus) (UniProt P81908); assay: Inhibition of equine serum BChE at 50 uM using butyrylthiocholine chloride as substrate incubated for 15 mins by Ellman's method relative to control
Cholinesterase (Equus caballus), sequence (P81908 whole entry): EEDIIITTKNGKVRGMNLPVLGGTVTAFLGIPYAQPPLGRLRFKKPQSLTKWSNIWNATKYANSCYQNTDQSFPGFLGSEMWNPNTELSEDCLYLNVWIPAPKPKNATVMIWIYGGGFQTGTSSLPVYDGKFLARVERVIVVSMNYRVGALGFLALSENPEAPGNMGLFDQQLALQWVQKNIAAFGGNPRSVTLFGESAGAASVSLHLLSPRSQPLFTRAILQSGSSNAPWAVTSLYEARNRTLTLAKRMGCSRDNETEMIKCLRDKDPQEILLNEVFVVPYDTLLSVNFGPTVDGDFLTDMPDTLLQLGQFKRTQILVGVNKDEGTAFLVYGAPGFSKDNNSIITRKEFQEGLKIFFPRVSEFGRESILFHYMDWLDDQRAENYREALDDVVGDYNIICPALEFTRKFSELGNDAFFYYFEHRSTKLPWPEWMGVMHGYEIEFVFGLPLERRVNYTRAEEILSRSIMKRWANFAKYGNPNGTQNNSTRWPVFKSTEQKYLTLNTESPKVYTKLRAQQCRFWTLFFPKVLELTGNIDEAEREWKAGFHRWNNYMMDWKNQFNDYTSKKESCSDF

[3] = target: T1, Acetylcholinesterase (Rattus norvegicus) (UniProt P37136); assay: Inhibition of rat cortex homogenate AChE at 50 uM using acetylthiocholine chloride as substrate incubated for 15 mins by Ellman's method relative to control
T1 sequence (whole entry): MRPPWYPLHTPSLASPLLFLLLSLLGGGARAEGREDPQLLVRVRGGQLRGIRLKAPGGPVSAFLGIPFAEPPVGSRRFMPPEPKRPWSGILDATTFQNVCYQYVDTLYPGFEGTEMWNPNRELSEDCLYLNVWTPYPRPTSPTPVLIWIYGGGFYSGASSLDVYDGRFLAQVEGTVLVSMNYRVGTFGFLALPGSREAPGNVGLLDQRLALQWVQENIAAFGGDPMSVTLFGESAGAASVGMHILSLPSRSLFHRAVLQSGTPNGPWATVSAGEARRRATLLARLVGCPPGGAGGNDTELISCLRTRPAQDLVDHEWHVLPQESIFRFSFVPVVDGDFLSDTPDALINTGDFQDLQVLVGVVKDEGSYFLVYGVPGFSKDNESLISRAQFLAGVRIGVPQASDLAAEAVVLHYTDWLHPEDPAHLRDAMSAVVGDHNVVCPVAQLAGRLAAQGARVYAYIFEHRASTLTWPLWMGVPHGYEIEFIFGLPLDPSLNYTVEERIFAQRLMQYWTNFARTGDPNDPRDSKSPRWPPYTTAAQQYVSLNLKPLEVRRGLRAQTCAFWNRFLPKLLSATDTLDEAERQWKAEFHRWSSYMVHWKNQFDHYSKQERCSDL

[4] = target: Butyrylcholinesterase (Rattus norvegicus) (UniProt Q9JKC1); assay: Inhibition of rat serum BChE at 50 uM using butyrylthiocholine chloride as substrate incubated for 15 mins by Ellman's method relative to control
Butyrylcholinesterase (Rattus norvegicus), sequence (Q9JKC1 as listed by the source): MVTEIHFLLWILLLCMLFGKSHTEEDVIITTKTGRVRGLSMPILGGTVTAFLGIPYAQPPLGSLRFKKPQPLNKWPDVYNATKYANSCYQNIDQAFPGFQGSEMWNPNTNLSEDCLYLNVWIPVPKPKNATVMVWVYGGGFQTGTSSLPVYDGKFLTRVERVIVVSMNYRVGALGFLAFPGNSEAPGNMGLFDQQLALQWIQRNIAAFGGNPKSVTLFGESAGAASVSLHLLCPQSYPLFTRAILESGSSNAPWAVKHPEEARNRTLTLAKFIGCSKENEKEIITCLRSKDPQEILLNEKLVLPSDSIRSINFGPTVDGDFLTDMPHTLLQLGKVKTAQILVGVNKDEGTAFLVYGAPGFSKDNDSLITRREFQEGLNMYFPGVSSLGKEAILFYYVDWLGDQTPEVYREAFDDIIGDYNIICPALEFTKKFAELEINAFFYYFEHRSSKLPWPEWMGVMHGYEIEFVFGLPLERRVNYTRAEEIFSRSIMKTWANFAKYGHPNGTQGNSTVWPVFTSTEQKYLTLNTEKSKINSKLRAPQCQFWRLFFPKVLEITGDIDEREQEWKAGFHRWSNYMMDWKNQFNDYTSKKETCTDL

Acetylcholinesterase [5] = target: Acetylcholinesterase (Electrophorus electricus, UniProt O42275); assay: Inhibition of electric eel AChE using acetylthiocholine chloride as substrate incubated for 15 mins by Ellman's method
Acetylcholinesterase (Electrophorus electricus, UniProt O42275), sequence (O42275 whole entry): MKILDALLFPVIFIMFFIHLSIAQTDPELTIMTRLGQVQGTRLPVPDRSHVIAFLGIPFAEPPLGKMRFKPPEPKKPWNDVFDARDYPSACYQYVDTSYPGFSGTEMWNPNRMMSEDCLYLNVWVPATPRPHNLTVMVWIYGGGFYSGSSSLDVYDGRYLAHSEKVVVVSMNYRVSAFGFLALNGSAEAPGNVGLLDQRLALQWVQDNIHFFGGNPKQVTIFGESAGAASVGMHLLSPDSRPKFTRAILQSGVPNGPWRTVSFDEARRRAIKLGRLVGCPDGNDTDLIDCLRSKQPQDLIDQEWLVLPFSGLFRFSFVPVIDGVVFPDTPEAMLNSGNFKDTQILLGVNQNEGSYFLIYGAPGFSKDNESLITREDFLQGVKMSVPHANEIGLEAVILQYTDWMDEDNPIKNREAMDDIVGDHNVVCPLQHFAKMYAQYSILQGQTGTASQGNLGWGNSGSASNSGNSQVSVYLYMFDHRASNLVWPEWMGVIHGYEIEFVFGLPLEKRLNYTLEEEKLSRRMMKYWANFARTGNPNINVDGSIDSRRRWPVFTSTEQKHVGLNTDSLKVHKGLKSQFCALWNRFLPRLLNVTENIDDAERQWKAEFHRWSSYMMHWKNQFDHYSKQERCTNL

Cholinesterase [6] = target: Cholinesterase (Equus caballus, UniProt P81908); assay: Inhibition of equine serum BChE using butyrylthiocholine chloride as substrate incubated for 15 mins by Ellman's method
Cholinesterase (Equus caballus, UniProt P81908), sequence (P81908 whole entry): as the sequence (P81908 whole entry) above

[7] = Selectivity index, ratio of IC50 for equine serum BChE to IC50 for electric eel AChE
Acetylcholinesterase [8] = target: T2, Acetylcholinesterase (Rattus norvegicus, UniProt P37136); assay: Inhibition of rat cortex homogenate AChE using acetylthiocholine chloride as substrate incubated for 15 mins by Ellman's method
T2 sequence (P37136 whole entry): T1 sequence (whole entry)

Butyrylcholinesterase = Butyrylcholinesterase (Rattus norvegicus, UniProt Q9JKC1); assay: Inhibition of rat serum BChE using butyrylthiocholine chloride as substrate incubated for 15 mins by Ellman's method
Butyrylcholinesterase, sequence (Q9JKC1 whole entry): as the sequence (Q9JKC1 as listed by the source) above

Acetylcholinesterase [9] = target: Acetylcholinesterase (Homo sapiens, UniProt P22303); assay: Inhibition of human erythrocyte AChE using acetylthiocholine chloride as substrate incubated for 15 mins by Ellman's method
Acetylcholinesterase (Homo sapiens, UniProt P22303), sequence (P22303 whole entry): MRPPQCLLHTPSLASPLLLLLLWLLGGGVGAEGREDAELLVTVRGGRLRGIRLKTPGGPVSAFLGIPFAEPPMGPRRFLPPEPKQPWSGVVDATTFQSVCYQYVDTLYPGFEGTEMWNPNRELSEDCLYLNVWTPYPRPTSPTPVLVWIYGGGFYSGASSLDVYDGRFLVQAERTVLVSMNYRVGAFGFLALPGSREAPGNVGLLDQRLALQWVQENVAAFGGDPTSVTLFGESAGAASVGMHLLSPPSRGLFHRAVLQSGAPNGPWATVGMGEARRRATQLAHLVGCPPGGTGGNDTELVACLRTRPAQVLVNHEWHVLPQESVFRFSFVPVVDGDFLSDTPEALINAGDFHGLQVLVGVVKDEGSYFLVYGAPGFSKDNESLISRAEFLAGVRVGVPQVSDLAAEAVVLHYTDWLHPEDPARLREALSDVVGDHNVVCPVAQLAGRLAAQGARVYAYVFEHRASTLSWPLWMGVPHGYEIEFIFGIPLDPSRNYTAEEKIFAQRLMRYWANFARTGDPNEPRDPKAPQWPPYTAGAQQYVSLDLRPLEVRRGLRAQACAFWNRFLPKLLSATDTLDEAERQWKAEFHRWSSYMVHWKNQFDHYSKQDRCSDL

Cholinesterase [10] = target: Cholinesterase (Homo sapiens, UniProt P06276); assay: Inhibition of human serum BChE using butyrylthiocholine chloride as substrate incubated for 15 mins by Ellman's method
Cholinesterase (Homo sapiens, UniProt P06276), sequence (P06276 whole entry): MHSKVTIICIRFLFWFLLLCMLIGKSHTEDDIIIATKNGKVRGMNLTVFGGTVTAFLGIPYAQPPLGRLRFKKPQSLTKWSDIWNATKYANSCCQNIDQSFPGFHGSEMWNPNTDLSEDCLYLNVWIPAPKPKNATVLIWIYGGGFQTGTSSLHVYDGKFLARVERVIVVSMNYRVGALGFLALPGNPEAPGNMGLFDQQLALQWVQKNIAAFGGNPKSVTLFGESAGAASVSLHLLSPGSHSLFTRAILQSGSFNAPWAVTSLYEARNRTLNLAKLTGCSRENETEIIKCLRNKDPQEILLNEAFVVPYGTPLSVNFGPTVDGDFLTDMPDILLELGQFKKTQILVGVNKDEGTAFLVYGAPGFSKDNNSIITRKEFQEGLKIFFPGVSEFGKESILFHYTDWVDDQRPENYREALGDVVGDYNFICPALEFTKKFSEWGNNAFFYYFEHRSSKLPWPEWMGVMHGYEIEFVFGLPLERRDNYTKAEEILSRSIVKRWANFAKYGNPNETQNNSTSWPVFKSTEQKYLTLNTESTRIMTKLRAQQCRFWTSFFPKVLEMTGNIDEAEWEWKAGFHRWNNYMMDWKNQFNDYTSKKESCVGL

[11] = target: T3, Amine oxidase [flavin-containing] B (Homo sapiens, UniProt P27338); assay: Inhibition of human recombinant MAO-B expressed in baculovirus infected BTI insect cells using kynuramine as substrate after 30 mins by fluorescence assay; format: cell-based
T3 sequence (P27338 whole entry): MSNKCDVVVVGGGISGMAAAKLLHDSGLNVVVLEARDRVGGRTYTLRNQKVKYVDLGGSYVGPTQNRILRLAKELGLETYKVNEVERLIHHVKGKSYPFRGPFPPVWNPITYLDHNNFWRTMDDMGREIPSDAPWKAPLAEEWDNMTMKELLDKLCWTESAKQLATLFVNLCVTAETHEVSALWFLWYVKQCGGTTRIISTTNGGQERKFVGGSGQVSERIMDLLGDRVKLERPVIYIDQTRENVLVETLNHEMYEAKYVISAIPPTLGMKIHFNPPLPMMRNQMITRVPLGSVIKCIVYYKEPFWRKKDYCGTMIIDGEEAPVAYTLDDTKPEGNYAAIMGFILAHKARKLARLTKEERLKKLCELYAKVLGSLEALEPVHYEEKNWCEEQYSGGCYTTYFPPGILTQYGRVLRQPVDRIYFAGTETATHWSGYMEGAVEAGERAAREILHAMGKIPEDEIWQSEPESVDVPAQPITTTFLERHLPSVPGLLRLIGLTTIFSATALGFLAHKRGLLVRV

[12] = target: T4, Amine oxidase [flavin-containing] A (Homo sapiens, UniProt P21397); assay: Inhibition of human recombinant MAO-A expressed in baculovirus infected BTI insect cells at 20 uM using kynuramine as substrate after 30 mins by fluorescence assay relative to control; settings: 0.5 h
T4 sequence (P21397 whole entry): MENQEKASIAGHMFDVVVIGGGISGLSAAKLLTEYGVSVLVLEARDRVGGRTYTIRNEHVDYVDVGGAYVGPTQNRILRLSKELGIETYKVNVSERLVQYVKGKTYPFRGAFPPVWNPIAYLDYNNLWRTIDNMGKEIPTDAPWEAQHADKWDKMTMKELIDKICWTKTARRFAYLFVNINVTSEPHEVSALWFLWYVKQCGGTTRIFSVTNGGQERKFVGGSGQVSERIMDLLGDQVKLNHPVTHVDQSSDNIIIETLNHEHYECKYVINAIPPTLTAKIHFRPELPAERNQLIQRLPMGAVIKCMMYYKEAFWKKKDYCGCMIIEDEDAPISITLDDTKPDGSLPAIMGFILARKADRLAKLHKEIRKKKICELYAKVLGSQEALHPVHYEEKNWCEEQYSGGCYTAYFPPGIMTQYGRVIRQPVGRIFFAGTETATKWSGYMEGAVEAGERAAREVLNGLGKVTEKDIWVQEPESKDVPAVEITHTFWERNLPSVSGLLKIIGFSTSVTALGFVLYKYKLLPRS

[13] = target: Acetylcholinesterase (Electrophorus electricus) (UniProt O42275); assay: Mixed-type inhibition of electric eel AChE at 0.5 to 2 uM using acetylthiocholine chloride as substrate by Lineweaver-Burk plot analysis
SH-SY5Y [14] = assay: Cytotoxicity against human SH-SY5Y cells assessed as decrease in cell viability up to 10 uM after 24 hrs by MTT assay; format: cell-based
SH-SY5Y [15] = assay: Cytotoxicity against human SH-SY5Y cells assessed as decrease in cell viability at 100 uM after 24 hrs by MTT assay; format: cell-based
[16] = Effective permeability of the compound at 100 ug/ml by PAMPA-BBB assay

Structure (SMILES)	inhibition [1] [%]	inhibition [2] [%]	inhibition [3] [%]	inhibition [4] [%]	IC50 (Acetylcholinesterase [5]) [nM]	IC50 (Cholinesterase [6]) [nM]	Ratio IC50 [7]	IC50 (Acetylcholinesterase [8]) [nM]	IC50 (Butyrylcholinesterase) [nM]	IC50 (Acetylcholinesterase [9]) [nM]	IC50 (Cholinesterase [10]) [nM]	IC50 [11] [nM]	inhibition at 20 µM [12] [%]	inhibition [13]	Activity (SH-SY5Y [14])	Activity (SH-SY5Y [15]) [%]	Papp at 100 ug/ml [16] [×10⁻⁶ cm/s]
O=C1NC(=O)c2ccccc21	< 5	< 5	< 5	< 5													
C#CCN(CCCN1C(=O)c2ccccc2C1=O)Cc1ccccc1					840	2500	3	270	2200	1200	3800	2600	< 5	Active	Non-Toxic	86.7	26
